# In the SangsterLogP compilation:
# Assay: method code SF-AS, from DOI: 10.1002/hlca.19830660215
# Settings: not given
row,SMILES,logP
1,COc1ccccc1C(=O)NCCN(C)C,1.14
2,CN(C)CCNC(=O)c1ccccc1,1.1
3,CCN(CC)CCCNC(=O)c1ccccc1OC,1.76
4,CCN(CC)CCNC(=O)c1ccccc1OC,1.98
5,COc1ccccc1C(=O)NCCN,0
6,COc1ccccc1C(=O)N1CCN(C)CC1,0.29
7,COc1ccccc1C(=O)NCCCN(C)C,1.27

# Same assay, conditions: pH 11.0
row,SMILES,logD
1,CCN(CC)CCNC(=O)c1ccccc1,1.84
2,NCCCNC(=O)c1ccccc1,0.3
3,CN(C)CCCNC(=O)c1ccccc1,1.27
4,CCN(CC)CCCNC(=O)c1ccccc1,1.56
5,COc1ccccc1C(=O)NCCCCN,0.58
6,NCCCCNC(=O)c1ccccc1,0.58
7,NCCNC(=O)c1ccccc1,0.06
